From US20080214542A1, “Arylpiperazine Derivatives and their Use as Selective Dopamine D3 Receptor Ligands” (BIOPROJET, priority 2004, published 2008) come the findings set out here.

The target of the test is human dopamine D3 receptor (hD3) (Homo sapiens, UniProt P35462). Description: Binding of [3H]spiperone to membranes of CHO cells transfected with the human dopamine D3 receptor. Here is the method: Biological Results: Determination of the Affinity of the Compounds for the Human Dopamine D3 Receptor
Sequence of human dopamine D3 receptor (hD3) (P35462 whole entry): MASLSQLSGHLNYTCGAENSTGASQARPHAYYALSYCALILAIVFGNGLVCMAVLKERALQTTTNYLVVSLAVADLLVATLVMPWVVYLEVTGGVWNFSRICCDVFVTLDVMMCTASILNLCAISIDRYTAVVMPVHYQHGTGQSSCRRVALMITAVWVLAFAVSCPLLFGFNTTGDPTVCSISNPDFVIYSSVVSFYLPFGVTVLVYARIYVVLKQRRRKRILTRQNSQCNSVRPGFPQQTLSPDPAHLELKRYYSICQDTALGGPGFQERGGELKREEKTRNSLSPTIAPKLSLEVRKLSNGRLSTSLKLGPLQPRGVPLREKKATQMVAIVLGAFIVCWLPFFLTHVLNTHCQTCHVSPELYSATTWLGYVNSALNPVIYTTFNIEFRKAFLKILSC
Binding of [^3H]spiperone:
CHO cells were transfected by the gene coding for the human dopamine D3 receptor (hD3). The binding of [^3H]spiperone (0.5 to 2 nM) takes place in the presence of 5 to 10 μg of membranous proteins in a medium containing 120 mM NaCl, 5 mM KCl, and 50 mM Tris HCL pH 7.4; an incubation of 60 minutes at ambient temperature is necessary. The non-specific binding is estimated in the presence of 5 μM of haloperidol. The non-transfected cells are devoid of any binding activity.

Setting [1] is: binding of [3H]spiperone (0.5 to 2 nM), hD3-transfected CHO cell membranes, 60 minutes at ambient temperature, read-out: hD3 Ki.

pKi: −log10 of the molar value. Structures can show the parent of a compound that is named as a salt. Where two headings read alike, the source gives them in different places.

By pKi is commonly meant −log10 of the Ki, conventionally taken in molar units.

Regarding `O=C(CCCCCN1CCN(c2cccc(C(F)(F)F)c2)CC1)N1Cc2cc3c(cc2C1)OCO3` [Example 10, 1-(6,7-dihydro-5H-[1,3]dioxolo[4,5-f]isoindol-6-yl)-6-[4-(3-trifluoromethylphenyl)piperazin-1-yl]hexan-1-one], the pKi under setting [1] is 8.93.
Take `COC(=O)c1ccc2c(c1)CN(C(=O)CCCCCN1CCN(c3cccc(C(F)(F)F)c3)CC1)C2` [Example 12, 1-(5-methoxycarbonylisoindolin-2-yl)-6-[4-(3-trifluoromethylphenyl)piperazin-1-yl]hexan-1-one hydrochloride]: the pKi under setting [1] was 9.07.
For the compound `N#Cc1ccc2c(c1)CN(C(=O)CCCCCN1CCN(c3cccc(C(F)(F)F)c3)CC1)C2` [Example 3, 1-(5-cyanoisoindolin-2-yl)-6-[4-(3-trifluoromethylphenyl)piperazin-1-yl]-hexan-1-one hydrochloride], under setting [1], the negative-log Ki (pKi) is 8.59.
Same read-out and setting: the figure for `O=C(CCCCCN1CCN(c2cccc(C(F)(F)F)c2)CC1)N1Cc2ccc(OCCCN3CCCCC3)cc2C1` [Example 24, 1-[5-(3-piperidinopropoxy)isoindolin-2-yl]-6-[4-(3-trifluoromethylphenyl)piperazin-1-yl]hexan-1-one] is 8.92.
Take `O=C(CCCCCN1CCN(c2cccc(F)c2)CC1)N1Cc2ccccc2C1` [reference compound]: the pKi (comparative example, affinity for the dopamine D3 receptor, read-out: Ki) was 6.49.
As for `O=C(CCCCCN1CCC(c2cccc(C(F)(F)F)c2)CC1)N1Cc2ccccc2C1` [Example 51, 1-isoindolin-2-yl-6-[4-(3-trifluoromethyl-phenyl)-piperidin-1-yl]hexan-1-one], under setting [1], the pKi is 7.71.
The same measure, in the same setting: the figure for `COc1ccc2c(c1)CN(C(=O)CCCCCN1CCN(c3cccc(C(F)(F)F)c3)CC1)C2` [Example 1, 1-(5-methoxyisoindolin-2-yl)-6-[4-(3-trifluoromethylphenyl)piperazin-1-yl]hexan-1-one] is 9.05; for `O=C(CCCCCN1CCN(c2cccc(C(F)(F)F)c2)CC1)N1Cc2ccc(F)cc2C1` [Example 7, 1-(5-fluoroisoindolin-2-yl)-6-[4-(3-trifluoromethylphenyl)piperazin-1-yl]hexan-1-one] it is 8.98; for `O=C(CCCCCN1CCN(c2cccc3c2CCCC3)CC1)N1Cc2ccccc2C1` [Example 38, 1-isoindolin-2-yl-6-[4-(5,6,7,8-tetrahydro-naphthalen-1-yl)piperazin-1-yl]hexan-1-one] it is 9.08.
For `O=C(CCCCCN1CC=C(c2cccc(C(F)(F)F)c2)CC1)N1Cc2ccccc2C1` [Example 50, 1-isoindolin-2-yl-6-[4-(3-trifluoromethylphenyl)-3,6-dihydro-2H-pyridin-1-yl]hexan-1-one], the pKi under setting [1] is 9.03.
